Like-named read-outs stand apart in the source and are kept apart here. Where a SMILES comes first, the peptide text is derived from it. Bridges are numbered along the chain shown (N, C = ends). [ ]: non-standard residue; d: D form. Tle = CC(C)(C)[C@H](N)C(=O)O; dDab = NCC[C@@H](N)C(=O)O; Orn = NCCC[C@H](N)C(=O)O; Dab = NCC[C@H](N)C(=O)O
Columns and labels:
[1] = system: human red blood cells (hRBC); test: Hemolysis: hemolytic activity at 100 μg/mL, 1 h at 37° C.
Procedure: Lyophilized peptides were weighed on a Microbalance (Mettler MT5) and dissolved in sterile water to a final concentration of 1 mg/mL. Stock solutions were kept at +4° C., light protected.
The peptides were tested for their hemolytic activity against human red blood cells (hRBC). Fresh hRBC were washed three times with phosphate buffered saline (PBS) and centrifuged for 5 min at 3000×g. Compounds (100 μg/mL) were incubated with 20% hRBC (v/v) for 1 h at 37° C. and shaking at 300 rpm. The final erythrocyte concentration was approximately 0.9×10^9 cells/mL. A value of 0% and 100% cell lyses, respectively, was determined by incubation of hRBC in the presence of PBS containing 0.001% acetic acid and 2.5% Triton X-100 in H2O, respectively. The samples were centrifuged, the supernatants were 8-fold diluted in PBS buffer and the optical densities (OD) were measured at 540 nm.
Percent hemolysis was calculated as follows: (OD540peptide/OD540H2O)×100%.

[2] = system: Acinetobacter baumannii DSM 30008; format: cell-based
Procedure: (§1) Stock solutions were kept at +4° C., light protected.
(§2) The selective antimicrobial activities of the peptides were determined in 96-well plates (Greiner, polystyrene) by the standard NCCLS broth microdilution method (National Committee for Clinical Laboratory Standards 1993. Methods for dilution antimicrobial susceptibility tests for bacteria that grow aerobically, 3rd ed. Approved standard M7-A6; National Committee for Clinical laboratory standards, Wayne, Pa.) with slight modifications. Inocula of the microorganisms were diluted into Mueller-Hinton II (MH, cation adjusted) broth and compared with a 0.5 McFarland standard to give appr. 10^6 colony forming units (CFU)/mL. Aliquots (90 μl) of inoculate were added to 10 μl of MH broth+P-80 (Polysorbate 80, 0.002% final concentration) containing the peptide in serial two-fold dilutions. The following microorganisms were used to determine antibiotic selectivity of the peptides: Escherichia coli ATCC 25922, Klebsiella pneumoniae ATCC 13883 and Acinetobacter baumannii DSM 30008.

[3] = system: Escherichia coli ATCC 25922; format: cell-based
Procedure: as §1, §2

[4] = system: Klebsiella pneumoniae ATCC 13883; format: cell-based
Procedure: as §1, §2

[5] = Mueller-Hinton II broth, 18-20 hours at 35° C.

Compound	Hemolysis at 100 μg/mL ([1]; red cells of human, 1 h, 100) [%]	Acinetobacter baumannii DSM 30008 MIC ([2]; DSM 30008) [µg/mL]	Escherichia coli ATCC 25922 MIC ([3]; ATCC 25922) [µg/mL]	Klebsiella pneumoniae ATCC 13883 MIC ([4]; ATCC 13883) [µg/mL]	Hemolysis at 100 μg/mL ([1]; 100 μg/mL, 20% hRBC, 1 h at 37° C.) [%]	Acinetobacter baumannii DSM 30008 MIC [2, 5] [µg/mL]	Escherichia coli ATCC 25922 MIC [3, 5] [µg/mL]	Klebsiella pneumoniae ATCC 13883 MIC [4, 5] [µg/mL]
CC(C)C[C@@H]1NC(=O)[C@H](CCCNC(=N)N)NC(=O)[C@@H](CCN)NC(=O)[C@H](C(C)C)NC(=O)[C@@H]2CSSC[C@H](NC1=O)C(=O)N[C@@H](Cc1ccc(O)cc1)C(=O)N[C@@H](CC(N)=O)C(=O)N[C@@H](CCCN)C(=O)N[C@H](CCN)C(=O)N[C@@H](CCN)C(=O)N[C@@H](Cc1c[nH]c3ccccc13)C(=O)N[C@@H](CO)C(=O)N[C@@H](Cc1ccc(O)cc1)C(=O)N2 [Example 10, cyclo(-Leu-Cys-Tyr-Asn-Orn-^DDab-Dab-Trp-Ser-Tyr-Cys-Val-^DDab-Arg-)] (HELM PEPTIDE1{C.V.[NCC[C@@H](N[*:1])C(=O)[*:2]].R.L.C.Y.N.[Orn].[NCC[C@@H](N[*:1])C(=O)[*:2]].[Dab].W.S.Y}$PEPTIDE1,PEPTIDE1,1:R3-6:R3|PEPTIDE1,PEPTIDE1,1:R1-14:R2$$$V2.0)	1	0.5	0.5	1	–	–	–	–
CC(C)C[C@@H]1NC(=O)[C@H](CCCNC(=N)N)NC(=O)[C@@H](CCN)NC(=O)[C@H](Cc2ccc(O)cc2)NC(=O)[C@@H]2CSSC[C@H](NC1=O)C(=O)N[C@@H](Cc1ccc(O)cc1)C(=O)N[C@@H](CC(N)=O)C(=O)N[C@@H](CCCN)C(=O)N[C@H](CCN)C(=O)N[C@@H](CCN)C(=O)N[C@@H](Cc1c[nH]c3ccccc13)C(=O)N[C@@H](CO)C(=O)N[C@@H](Cc1ccc(O)cc1)C(=O)N2 [Example 11, cyclo(-Leu-Cys-Tyr-Asn-Orn-^DDab-Dab-Trp-Ser-Tyr-Cys-Tyr-^DDab-Arg-)] (HELM PEPTIDE1{C.Y.N.[Orn].[NCC[C@@H](N[*:1])C(=O)[*:2]].[Dab].W.S.Y.C.Y.[NCC[C@@H](N[*:1])C(=O)[*:2]].R.L}$PEPTIDE1,PEPTIDE1,1:R3-10:R3|PEPTIDE1,PEPTIDE1,1:R1-14:R2$$$V2.0)	4	0.5	0.25	0.25	–	–	–	–
CC[C@H](C)[C@@H]1NC(=O)[C@H](CCCNC(=N)N)NC(=O)[C@@H](CCN)NC(=O)[C@H](CO)NC(=O)[C@@H]2CSSC[C@H](NC1=O)C(=O)N[C@@H](Cc1ccc(O)cc1)C(=O)N[C@@H](CCN)C(=O)N[C@@H](CCCN)C(=O)N[C@H](CCN)C(=O)N[C@@H](CCN)C(=O)N[C@@H](Cc1c[nH]c3ccccc13)C(=O)N[C@@H](CCN)C(=O)N[C@@H](C(C)(C)C)C(=O)N2 [Example 12, cyclo(-Ile-Cys-Tyr-Dab-Orn-^DDab-Dab-Trp-Dab-tBuGly-Cys-Ser-^DDab-Arg-)] (cyclo(CS[dDab]RICY[Dab][Orn][dDab][Dab]W[Dab][Tle]); disulfide 1-6)	1	1	0.5	1	–	–	–	–
CC[C@H](C)[C@@H]1NC(=O)[C@H](C)NC(=O)[C@@H](CCN)NC(=O)[C@H](CO)NC(=O)[C@@H]2CSSC[C@H](NC1=O)C(=O)N[C@@H](Cc1ccc(O)cc1)C(=O)N[C@@H](CCN)C(=O)N[C@@H](CCCN)C(=O)N[C@H](CCN)C(=O)N[C@@H](CCN)C(=O)N[C@@H](Cc1c[nH]c3ccccc13)C(=O)N[C@@H](CCN)C(=O)N[C@@H](C(C)(C)C)C(=O)N2 [Example 13, cyclo(-Ile-Cys-Tyr-Dab-Orn-^DDab-Dab-Trp-Dab-tBuGly-Cys-Ser-^DDab-Ala-)] (cyclo(AICY[Dab][Orn][dDab][Dab]W[Dab][Tle]CS[dDab]); disulfide 3-12)	1	2	0.5	8	–	–	–	–
CC[C@H](C)[C@@H]1NC(=O)[C@@H]2CCCN2C(=O)[C@@H](CCN)NC(=O)[C@H](CO)NC(=O)[C@@H]2CSSC[C@H](NC1=O)C(=O)N[C@@H](Cc1ccc(O)cc1)C(=O)N[C@@H](CCN)C(=O)N[C@@H](CCCN)C(=O)N[C@H](CCN)C(=O)N[C@@H](CCN)C(=O)N[C@@H](Cc1c[nH]c3ccccc13)C(=O)N[C@@H](CCN)C(=O)N[C@@H](C(C)(C)C)C(=O)N2 [Example 14, cyclo(-Ile-Cys-Tyr-Dab-Orn-^DDab-Dab-Trp-Dab-tBuGly-Cys-Ser-^DDab-Pro-)] (cyclo(CS[dDab]PICY[Dab][Orn][dDab][Dab]W[Dab][Tle]); disulfide 1-6)	1	1	0.5	1	–	–	–	–
CC(C)[C@@H]1NC(=O)[C@@H]2CCCN2C(=O)[C@@H](Cc2ccc(O)cc2)NC(=O)[C@H]([C@@H](C)O)NC(=O)[C@@H]2CSSC[C@H](NC1=O)C(=O)N[C@@H](Cc1ccc(O)cc1)C(=O)N[C@@H](CCN)C(=O)N[C@@H](CN)C(=O)N[C@@H](CCN)C(=O)N[C@@H](CCN)C(=O)N[C@@H](Cc1c[nH]c3ccccc13)C(=O)N[C@@H](CCN)C(=O)N[C@@H](C(C)(C)C)C(=O)N2 [Example 15, cyclo(-Val-Cys-Tyr-Dab-Dap-Dab-Dab-Trp-Dab-tBuGly-Cys-Thr-^DTyr-Pro-)] (HELM PEPTIDE1{C.T.[dY].P.V.C.Y.[Dab].[NC[C@H](N[*:1])C(=O)[*:2]].[Dab].[Dab].W.[Dab].[CC(C)(C)[C@H](N[*:1])C(=O)[*:2]]}$PEPTIDE1,PEPTIDE1,1:R3-6:R3|PEPTIDE1,PEPTIDE1,1:R1-14:R2$$$V2.0)	–	–	–	–	2	0.5	0.5	0.25
CC[C@H](C)[C@@H]1NC(=O)[C@H](Cc2ccc(O)cc2)NC(=O)[C@@H](C)NC(=O)[C@H](CO)NC(=O)[C@@H]2CSSC[C@H](NC1=O)C(=O)N[C@@H](Cc1ccc(O)cc1)C(=O)N[C@@H](CCN)C(=O)N[C@@H](CCCN)C(=O)N[C@H](CCN)C(=O)N[C@@H](CCN)C(=O)N[C@@H](Cc1c[nH]c3ccccc13)C(=O)N[C@@H](CCN)C(=O)N[C@@H](C(C)(C)C)C(=O)N2 [Example 16, cyclo(-Ile-Cys-Tyr-Dab-Orn-^DDab-Dab-Trp-Dab-tBuGly-Cys-Ser-^DAla-Tyr-)] (HELM PEPTIDE1{C.S.[dA].Y.I.C.Y.[Dab].[Orn].[NCC[C@@H](N[*:1])C(=O)[*:2]].[Dab].W.[Dab].[CC(C)(C)[C@H](N[*:1])C(=O)[*:2]]}$PEPTIDE1,PEPTIDE1,1:R3-6:R3|PEPTIDE1,PEPTIDE1,1:R1-14:R2$$$V2.0)	1	1	0.5	0.5	–	–	–	–
CC(C)C[C@@H]1NC(=O)[C@H](CCCNC(=N)N)NC(=O)[C@@H](CCN)NC(=O)[C@H](Cc2ccc(O)cc2)NC(=O)[C@@H]2CSSC[C@H](NC1=O)C(=O)N[C@@H](Cc1ccc(O)cc1)C(=O)N[C@@H](C)C(=O)N[C@@H](CCCN)C(=O)N[C@H](CCN)C(=O)N[C@@H](CCN)C(=O)N[C@@H](Cc1c[nH]c3ccccc13)C(=O)N[C@@H](C)C(=O)N[C@@H](Cc1ccc(O)cc1)C(=O)N2 [Example 17, cyclo(-Leu-Cys-Tyr-Ala-Orn-^DDab-Dab-Trp-Ala-Tyr-Cys-Tyr-^DDab-Arg-)] (HELM PEPTIDE1{A.[Orn].[NCC[C@@H](N[*:1])C(=O)[*:2]].[Dab].W.A.Y.C.Y.[NCC[C@@H](N[*:1])C(=O)[*:2]].R.L.C.Y}$PEPTIDE1,PEPTIDE1,8:R3-13:R3|PEPTIDE1,PEPTIDE1,1:R1-14:R2$$$V2.0)	4	0.5	0.5	1	–	–	–	–
CC(C)C[C@@H]1NC(=O)[C@H](CCCNC(=N)N)NC(=O)[C@@H](CCN)NC(=O)[C@H](C(C)C)NC(=O)[C@@H]2CSSC[C@H](NC1=O)C(=O)N[C@@H](C(C)C)C(=O)N[C@@H](CC(N)=O)C(=O)N[C@@H](CCCN)C(=O)N[C@H](CCN)C(=O)N[C@@H](CCN)C(=O)N[C@@H](Cc1c[nH]c3ccccc13)C(=O)N[C@@H](CO)C(=O)N[C@@H](Cc1ccc(O)cc1)C(=O)N2 [Example 18, cyclo(-Leu-Cys-Val-Asn-Orn-^DDab-Dab-Trp-Ser-Tyr-Cys-Val-^DDab-Arg-)] (HELM PEPTIDE1{C.V.N.[Orn].[NCC[C@@H](N[*:1])C(=O)[*:2]].[Dab].W.S.Y.C.V.[NCC[C@@H](N[*:1])C(=O)[*:2]].R.L}$PEPTIDE1,PEPTIDE1,1:R3-10:R3|PEPTIDE1,PEPTIDE1,1:R1-14:R2$$$V2.0)	8	0.25	0.5	0.5	–	–	–	–

— patent publication US11753446B2, “Beta-hairpin peptidomimetics” (POLYPHOR AG, priority 2014, dated 2023)
